SMILES strings stand for the structures.

One compound from patent US20080039444A1, “COMPOUNDS” (GLAXO GROUP LIMITED, priority 2006, published 2008) can be followed below.

Test [1] deals with T1, human H1 receptor (Homo sapiens, UniProt P35367).
T1 construct: expressed in transfected cells
The test can be described thus: Histamine H1 functional antagonist assay (FLIPR): determination of functional pKi values. It counts as cell-based. As to conditions: CHO cells expressing human H1, histamine at EC80; read-out: average pKi (pKb) at H1 (converted). The text has this: H1 receptor cell line generation and FLIPR assay protocol
1. Generation of histamine H1 cell line
(§1) The human H1 receptor is cloned using known procedures described in the literature [Biochem. Biophys. Res. Commun., 201(2):894 (1994)]. Chinese hamster ovary (CHO) cells stably expressing the human H1 receptor are generated according to known procedures described in the literature [Br. J. Pharmacol., 117(6):1071 (1996)].
Histamine H1 functional antagonist assay: Determination of functional pKi values […]
10 μl of test compound, diluted to the required concentration in Tyrodes buffer+probenecid (or 10 μl Tyrodes buffer+probenecid as a control) is added to each well and the plate is incubated for 30 min at 37° C., 5% CO2. The plates are then placed into a FLIPR™ (Molecular Devices, UK) to monitor cell fluorescence (λex=488 nm, αEM=540 nm) in the manner described in Sullivan et al., (In: Lambert DG (ed.), Calcium Signaling Protocols, New Jersey: Humana Press, 1999, 125-136) before and after the addition of 10 μl histamine at a concentration that results in the final assay concentration of histamine being EC80.
Functional antagonism is indicated by a suppression of histamine induced increase in fluorescence, as measured by the FLIPR™ system (Molecular Devices). By means of concentration effect curves, functional affinities are determined using standard pharmacological mathematical analysis.

Test [2] deals with T1, human H1 receptor. The test can be described thus: Histamine H1 functional antagonist assay: antagonist duration after washout. The test is classed as cell-based. As to conditions: at one or more time points. The method, then: as §1
Histamine H1 functional antagonist assay: Determination of antagonist pA2 and duration
To determine the antagonist duration, cells are cultured overnight in non-coated black-walled clear bottom 96-well tissue culture plates, are washed with PBS and are incubated with a concentration of antagonist chosen to give an approximate DR in the range 30-300. Following the 30 min antagonist incubation period, the cells are washed two or three times with 200 μl of PBS and then 100 μl Tyrodes buffer is added to each well to initiate antagonist dissociation. Following incubation for predetermined times, typically 30-270 min at 37° C., the cells are then washed again with 200 μl PBS and are incubated with 100 μl Tyrodes buffer containing Brilliant Black, probenecid and Fluo-4 for 45 min at 37° C., as described above. After this period, the cells are challenged with histamine in the FLIPR™ as described above. The dose ratio at each time point is used to determine the fractional H1 receptor occupancy by the following equation: fractional receptor occupancy=(DR-1)/DR. The decrease in receptor occupancy over time approximates to a straight line and is analysed by linear regression. The slope of this straight line fit is used as an index of the dissociation rate of the antagonist. The dose ratios for antagonist treated cells and for antagonist treated and washed cells at each time point are used to calculate a relative dose ratio (rel DR) which is also used as an index of antagonist duration. Antagonists with long duration of action produce rel DR values close to 1, and antagonists with short duration of action produce rel DR values that approaches the dose ratio value obtained for antagonist treatment alone.

Test [3] deals with histamine-induced nasal congestion. As to the kind of experiment: Intranasal challenge method: whole body plethysmography, histamine-induced nasal congestion. The test is classed as in vivo, guinea pig. As to conditions: 24 hours after dosing, compared to azelastine; intranasal 1 mg/ml (FIG. 3, Example 24D). The method, then: FIG. 3: depicts the duration of 4-[(4-chlorophenyl)methyl]-2-({(2R)-1-[4-(4-{[3-(hexahydro-1H-azepin-1-yl)propyl]oxy}phenyl)butyl]-2-pyrrolidinyl}methyl)-1(2H)-phthalazinone, dihydrochloride salt (Example 24D) and azelastine in a conscious Guinea-Pig model of histamine-induced nasal congestion. Animals were exposed to histamine at the time indicated after an intranasal dose of 1 mg/ml of compound. Mean ±s.e. mean (n=6-10 per group).
Intranasal Challenge Method: Whole Body Plethysmography
Female Dunkin-Hartley guinea pigs 150-250 g are sensitised twice daily for 5 days (week 1) with ovalbumin (OVA) and aluminium hydroxide (AI(OH)3 or Alum) in physiological saline, 25 μl/nostril. Solution is made up at 20 μg/ml OVA, 180 mg/ml Alum. During weeks 2 and 3, animals receive 25 μl/nostril of OVA (5 mg/ml) once daily. […]
Pretreatment with test compound is performed at various times prior to histamine challenge. Efficacy dose-response curves are determined 1 h after dosing whereas duration of action is studied up to 7 days post dose. […]
After the stipulated pre-dose time has been reached, guinea pigs are re-anaesthetised with isoflurane and dosed with either 15 mM histamine or phosphate-buffered saline (PBS), (25 μl per nostril). […] Data are analysed using ANOVA with post-hoc Fishers LSD test (general linear models, Statistica®) and finally Hochberg adjustment. […]

T1 sequence (P35367 whole entry): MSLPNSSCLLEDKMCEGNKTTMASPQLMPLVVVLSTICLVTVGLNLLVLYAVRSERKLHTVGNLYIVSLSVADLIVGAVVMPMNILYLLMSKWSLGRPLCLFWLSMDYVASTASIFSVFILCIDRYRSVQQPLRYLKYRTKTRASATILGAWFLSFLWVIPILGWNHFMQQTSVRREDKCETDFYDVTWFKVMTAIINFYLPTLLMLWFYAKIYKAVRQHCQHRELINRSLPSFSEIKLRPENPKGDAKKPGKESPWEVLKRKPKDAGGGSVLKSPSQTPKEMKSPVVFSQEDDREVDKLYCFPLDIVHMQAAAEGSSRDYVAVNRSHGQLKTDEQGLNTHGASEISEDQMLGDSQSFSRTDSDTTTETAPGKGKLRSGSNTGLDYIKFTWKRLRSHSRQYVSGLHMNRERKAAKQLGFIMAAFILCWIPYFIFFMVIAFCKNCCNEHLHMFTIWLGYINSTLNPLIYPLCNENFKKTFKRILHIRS

Regarding `O=c1c2ccccc2c(Cc2ccc(Cl)cc2)nn1C[C@H]1CCCN1CCCCc1ccc(OCCCN2CCCCCC2)cc1` [Example 24, 4-[(4-Chlorophenyl)methyl]-2-({(2R)-1-[4-(4-{[3-(hexahydro-1H-azepin-1-yl)propyl]oxy}phenyl)butyl]-2-pyrrolidinyl}methyl)-1(2H)-phthalazinone free base], the Ki in test [1] is roughly 15.8 nM. Moreover, in test [2], the “duration of action compared with azelastine in the histamine H1 functional antagonist assay” value is recorded as “significantly longer duration of action than azelastine”. In addition, in test [3], the “inhibition of nasal congestion in the Guinea Pig whole body plethysmography model” value is reported as “statistically significant inhibition of nasal congestion”.
